Reference: PubChem BioAssay (NCI)
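Assay format: 96-well plates, 48-hour exposure. GI50: concentration for 50% inhibition of growth. TGI denotes the concentration required for complete inhibition of growth.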 Where a SMILES comes first, the peptide text is derived from it.

How the values were obtained:
Assay in all cases: inhibition of tumour cell growth, NCI panel, 48 h
[1] = tested on: A498 renal
[2] = tested on: A549 NSCLC
[3] = tested on: HL-60(TB) leukemia
[4] = tested on: M14 melanoma
[5] = tested on: MOLT-4 leukemia
[6] = tested on: NCI-H23 lung
[7] = tested on: PC-3 prostate
[8] = tested on: SR leukemia
[9] = tested on: UO-31 renal

Compound: CSC1=N/C(=C\c2ccc(C)cc2)C(=O)N1CN1CCOCC1
- TGI [1]: > 100 µM
- TGI [2]: > 100 µM
- TGI [3]: > 100 µM
- TGI [4]: > 100 µM
- TGI [5]: > 100 µM
- TGI [6]: > 100 µM
- TGI [7]: > 100 µM
- TGI [8]: > 100 µM
- TGI [9]: > 100 µM

Compound: C=C1C(=O)O[C@@H]2[C@H]3O[C@]3(C)CCC=C(C)CC[C@@H]12
- TGI [1]: 13.3 µM
- TGI [2]: 202 µM
- TGI [3]: 23.4 µM
- TGI [5]: 92 µM
- TGI [6]: 52.7 µM
- TGI [9]: 91.9 µM

Compound: NC(=O)NC(=O)c1cnccn1
- TGI [1]: > 100 µM
- TGI [2]: > 100 µM
- TGI [4]: > 100 µM
- TGI [5]: > 100 µM
- TGI [6]: > 100 µM
- TGI [7]: > 100 µM
- TGI [9]: > 100 µM

Compound: CC1=C2C(O)C(C(C)C(=O)NCC(C)C)CCC2(C)C=CC1=O (stereo not drawn)
- TGI [1]: > 100 µM
- TGI [2]: > 100 µM
- TGI [3]: > 100 µM
- TGI [5]: > 100 µM
- TGI [6]: > 100 µM
- TGI [9]: > 100 µM

Compound: CC1NC(=O)CNC(=O)CNC(=O)C(Cc2ccc(O)cc2)NC(=O)C(C(C)C)NC(=O)C(C)NC1=O (stereo not drawn) (cyclo(GGAAVY); configuration not given here)
- GI50 [1]: 75.6 µM
- TGI [1]: > 100 µM
- TGI [2]: > 100 µM
- TGI [3]: > 100 µM
- TGI [5]: > 100 µM
- TGI [6]: > 100 µM
- TGI [9]: > 100 µM

Compound: NC(=S)/N=C/c1c(O)c2ccccc2oc1=O
- TGI [1]: > 100 µM
- TGI [2]: > 100 µM
- TGI [3]: > 100 µM
- TGI [4]: > 100 µM
- TGI [5]: > 100 µM
- TGI [6]: > 100 µM
- TGI [9]: > 100 µM

Compound: Cc1cc2nc3n[nH]c(N)c3nc2cc1C
- TGI [1]: > 100 µM
- TGI [2]: > 100 µM
- TGI [3]: > 100 µM
- TGI [4]: > 100 µM
- TGI [5]: > 100 µM
- TGI [6]: > 100 µM
- TGI [7]: > 100 µM
- TGI [8]: > 100 µM
- TGI [9]: > 100 µM

Compound: CCCCCC(CN1CCOCC1)C(=O)/C=C/c1ccccc1 (stereo not drawn)
- TGI [2]: 12 µM
- TGI [3]: 5.42 µM
- TGI [4]: 5.44 µM
- TGI [5]: 4.61 µM
- TGI [6]: 11.9 µM
- TGI [8]: 8.5 µM
- TGI [9]: 20.1 µM

Compound: O=C1C=CC(=O)c2c1ccc1c3ccccc3n(-c3ccccn3)c21
- TGI [2]: > 100 µM
- TGI [3]: 31.4 µM
- TGI [4]: 87.9 µM
- TGI [5]: 84.5 µM
- TGI [6]: > 100 µM
- TGI [9]: 35.8 µM

Compound: CC(=O)/C(C=Nc1c(C)n(C)n(-c2ccccc2)c1=O)=C(/C)O
- TGI [1]: > 100 µM
- TGI [2]: > 100 µM
- TGI [3]: > 100 µM
- TGI [4]: > 100 µM
- TGI [5]: > 100 µM
- TGI [6]: > 100 µM
- TGI [7]: > 100 µM
- TGI [8]: > 100 µM
- TGI [9]: > 100 µM

Compound: Cc1cc(-c2ccc(C(=O)O)[nH]2)on1
- TGI [1]: > 100 µM
- TGI [2]: > 100 µM
- TGI [4]: > 100 µM
- TGI [5]: > 100 µM
- TGI [6]: > 100 µM
- TGI [7]: > 100 µM
- TGI [9]: > 100 µM

Compound: CCN1CC2=C(N=c3s/c(=C\c4ccc(Cl)cc4)c(=O)n3C2c2ccc(Cl)cc2)/C(=C/c2ccc(Cl)cc2)C1 (stereo not drawn)
- TGI [1]: 64.6 µM
- TGI [2]: > 100 µM
- TGI [3]: > 100 µM
- TGI [4]: > 100 µM
- TGI [5]: > 100 µM
- TGI [6]: > 100 µM
- TGI [7]: > 100 µM
- TGI [9]: > 100 µM

Compound: CN(C)c1ccc(-c2cc(=O)c3ccccc3[nH]2)cc1
- TGI [2]: > 100 µM
- TGI [3]: > 100 µM
- TGI [4]: > 100 µM
- TGI [5]: > 100 µM
- TGI [6]: > 100 µM
- TGI [8]: > 100 µM
- TGI [9]: > 100 µM

Compound: NC(N)=NCCCC(N=c1c2ccccc2n(O)c2ccccc12)C(=O)O (stereo not drawn)
- TGI [1]: > 100 µM
- TGI [2]: > 100 µM
- TGI [3]: 58.5 µM
- TGI [4]: > 100 µM
- TGI [5]: > 100 µM
- TGI [6]: > 100 µM
- TGI [9]: > 100 µM

Compound: CCN(CC)CCn1c(C(C)(C)C)nc2ccccc21
- TGI [2]: > 100 µM
- TGI [3]: > 100 µM
- TGI [4]: > 100 µM
- TGI [5]: > 100 µM
- TGI [6]: > 100 µM
- TGI [7]: > 100 µM
- TGI [8]: > 100 µM
- TGI [9]: > 100 µM

Compound: C=C[C@@H]1OC(=O)O[C@H]1CO
- TGI [1]: > 100 µM
- TGI [2]: > 100 µM
- TGI [4]: > 100 µM
- TGI [5]: > 100 µM
- TGI [6]: > 100 µM
- TGI [7]: > 100 µM
- TGI [8]: > 100 µM
- TGI [9]: > 100 µM

Compound: C=CC1(C)CCC(C(C)C(=O)C(C=C(C)C)OC(C)=O)C12C(=O)Oc1ccccc1C2=O (stereo not drawn)
- TGI [2]: > 100 µM
- TGI [3]: 64.6 µM
- TGI [4]: > 100 µM
- TGI [5]: 78.7 µM
- TGI [6]: > 100 µM
- TGI [8]: > 100 µM
- TGI [9]: > 100 µM

Compound: Cc1ccc(-c2c(C#N)c(-c3ccc(Cl)cc3)c(C#N)c(=O)n2NS(=O)(=O)c2ccccc2)cc1
- TGI [1]: > 100 µM
- TGI [2]: > 100 µM
- TGI [3]: > 100 µM
- TGI [4]: > 100 µM
- TGI [5]: > 100 µM
- TGI [7]: > 100 µM

Compound: Cc1ccc(C)c(NC(=O)C(=O)C2C(=O)C3=C(CC2(C)C)Nc2ccccc2S3)c1 (stereo not drawn)
- TGI [2]: > 100 µM
- TGI [3]: > 100 µM
- TGI [4]: > 100 µM
- TGI [5]: > 100 µM
- TGI [6]: > 100 µM
- TGI [7]: > 100 µM
- TGI [9]: > 100 µM

Compound: CC(=O)ON(OC(C)=O)c1ccc(C)cc1
- TGI [1]: > 100 µM
- TGI [2]: > 100 µM
- TGI [4]: > 100 µM
- TGI [5]: > 100 µM
- TGI [6]: > 100 µM
- TGI [7]: > 100 µM
- TGI [9]: > 100 µM

Compound: O=C(OCCN=C1c2ccccc2CCc2ccccc21)c1cc([N+](=O)[O-])cc([N+](=O)[O-])c1
- TGI [2]: > 31.6 µM
- TGI [3]: > 100 µM
- TGI [4]: > 31.6 µM
- TGI [5]: 7.09 µM
- TGI [6]: > 31.6 µM
- TGI [7]: > 31.6 µM
- TGI [8]: 5.5 µM
- TGI [9]: > 100 µM
